# Reference: patent US7928104B2, “7-phenylalkyl substituted 2-quinolinones and 2-quinoxalinones as poly(ADP-ribose) polymerase inhibitors” (priority 2003, dated 2011)
# Counter-ions that a name gives are not always drawn.
# Tests used:
# [1] = test system: ischemia and reperfusion of the heart; settings: rabbits, cited from earlier work
# colitis = settings: rats, colitis induced by intraluminal trinitrobenzene sulfonic acid in 50% ethanol; cited from earlier work
# PARP-1 enzyme [2] = biological target: T1, PARP-1 enzyme (Homo sapiens, UniProt P09874); experiment: In vitro Scintillation Proximity Assay (SPA) for PARP-1 inhibitory activity; type: biochemical; settings: nicked DNA activated PARP-1, [3H]-NAD+, biotinylated histones; read-out: In vitro SPA pIC50 (converted)
# T1 construct: made in house
# T1 sequence (P09874 whole entry): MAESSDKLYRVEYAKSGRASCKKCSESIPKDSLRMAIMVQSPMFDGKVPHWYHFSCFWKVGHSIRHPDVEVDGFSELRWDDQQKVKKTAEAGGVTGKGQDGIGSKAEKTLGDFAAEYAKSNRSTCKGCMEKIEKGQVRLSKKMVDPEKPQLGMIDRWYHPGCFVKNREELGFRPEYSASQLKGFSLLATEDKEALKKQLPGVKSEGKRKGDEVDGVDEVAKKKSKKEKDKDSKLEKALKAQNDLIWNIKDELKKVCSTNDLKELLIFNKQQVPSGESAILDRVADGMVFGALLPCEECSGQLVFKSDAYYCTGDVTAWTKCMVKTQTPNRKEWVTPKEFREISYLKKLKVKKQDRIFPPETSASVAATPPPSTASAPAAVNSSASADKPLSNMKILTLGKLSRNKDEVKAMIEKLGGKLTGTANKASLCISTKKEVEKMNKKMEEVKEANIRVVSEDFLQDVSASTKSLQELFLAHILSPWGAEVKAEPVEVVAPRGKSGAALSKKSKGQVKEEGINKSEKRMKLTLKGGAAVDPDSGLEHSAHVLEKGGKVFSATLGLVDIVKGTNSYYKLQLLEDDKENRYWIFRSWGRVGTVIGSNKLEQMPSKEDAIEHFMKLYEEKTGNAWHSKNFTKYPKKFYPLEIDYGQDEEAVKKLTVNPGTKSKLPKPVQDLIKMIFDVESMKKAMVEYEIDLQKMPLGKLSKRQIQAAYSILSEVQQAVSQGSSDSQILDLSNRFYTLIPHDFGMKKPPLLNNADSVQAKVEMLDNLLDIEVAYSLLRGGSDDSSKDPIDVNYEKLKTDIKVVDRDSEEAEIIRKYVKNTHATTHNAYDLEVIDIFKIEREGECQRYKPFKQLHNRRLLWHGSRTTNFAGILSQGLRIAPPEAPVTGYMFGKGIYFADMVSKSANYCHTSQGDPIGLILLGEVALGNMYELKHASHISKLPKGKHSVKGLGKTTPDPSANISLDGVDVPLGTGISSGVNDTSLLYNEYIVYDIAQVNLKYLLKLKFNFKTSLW
# Protocol: Compounds of the present invention were tested in an in vitro assay based on SPA technology (proprietary to Amersham Pharmacia Biotech).
# In principle, the assay relies upon the well established SPA technology for the detection of poly(ADP-ribosyl)ation of biotinylated target proteins, i.e histones. This ribosylation is induced using nicked DNA activated PARP-1 enzyme and [^3H]-nicotinamide adenine dinucleotide ([^3H]-NAD^+) as ADP-ribosyl donor.
# As inducer of PARP-1 enzyme activity, nicked DNA was prepared. For this, 25 mg of DNA (supplier: Sigma) was dissolved in 25 ml DNAse buffer (10 mM Tris-HCl, pH 7.4; 0.5 mg/ml Bovine Serum Albumine (BSA); 5 mM MgCl2.6H2O and 1 mM KCl) to which 50 μl DNAse solution (1 mg/ml in 0.15 M NaCl) was added. After an incubation of 90 min. at 37° C., the reaction was terminated by adding 1.45 g NaCl, followed by a further incubation at 58° C. for 15 min. The reaction mixture was cooled on ice and dialysed at 4° C. for respectively 1.5 and 2 hours against 1.5 l of 0.2 M KCl, and twice against 1.5 l of 0.01 M KCl for 1.5 and 2 h respectively. The mixture was aliquoted and stored at −20° C. Histones (1 mg/ml, type II-A, supplier: Sigma) were biotinylated using the biotinylation kit of Amersham and stored aliquoted at −20° C. A stock solution of 100 mg/ml SPA poly(vinyl toluene) (PVT) beads (supplier: Amersham) was made in PBS. A stock solution of [^3H]-NAD^+ was made by adding 120 μl of [^3H]-NAD^+ (0.1 mCi/ml, supplier: NEN) to 6 ml incubation buffer (50 mM Tris/HCl, pH 8; 0.2 mM DTT; 4 mM MgCl2). A solution of 4 mM NAD^+ (supplier: Roche) was made in incubation buffer (from a 100 mM stock solution in water stored at −20° C.). The PARP-1 enzyme was produced using art known techniques, i.e. cloning and expression of the protein starting from human liver cDNA. Information concerning the used protein sequence of the PARP-1 enzyme including literature references can be found in the Swiss-Prot database under primary accession number P09874. Biotinylated histones and PVT-SPA beads were mixed and pre-incubated for 30 min. at room temperature. PARP-1 enzyme (concentration was lot dependent) was mixed with the nicked DNA and the mixture was pre-incubated for 30 min. at 4° C. Equal parts of this histones/PVT-SPA beads solution and PARP-1 enzyme/DNA solution were mixed and 75 μl of this mixture together with 1 μl of compound in DMSO and 25 μl of [^3H]-NAD^+ was added per well into a 96-well microtiterplate. The final concentrations in the incubation mixture were 2 μg/ml for the biotinylated histones, 2 mg/ml for the PVT-SPA beads, 2 μg/ml for the nicked DNA and between 5-10 μg/ml for the PARP-1 enzyme. After incubation of the mixture for 15 min. at room temperature, the reaction was terminated by adding 100 μl of 4 mM NAD^+ in incubation buffer (final concentration 2 mM) and plates were mixed. The beads were allowed to sediment for at least 15 min. and plates transferred to a TopCountNXT™ (Packard) for scintillation counting, values were expressed as counts per minute (cpm). For each experiment, controls (containing PARP-1 enzyme and DMSO without compound), a blank incubation (containing DMSO but no PARP-1 enzyme or compound) and samples (containing PARP-1 enzyme and compound dissolved in DMSO) were run in parallel. All compounds tested were dissolved and eventually further diluted in DMSO. […] In each test, the blank value was subtracted from both the control and the sample values. The control sample represented maximal PARP-1 enzyme activity. For each sample, the amount of cpm was expressed as a percentage of the mean cpm value of the controls. When appropriate, IC50-values (concentration of the drug, needed to reduce the PARP-1 enzyme activity to 50% of the control) were computed using linear interpolation between the experimental points just above and below the 50% level. Herein the effects of test compounds are expressed as pIC50 (the negative log value of the IC50-value). […]
# PARP-1 enzyme [3] = biological target: T1, PARP-1 enzyme; experiment: In vitro filtration assay for PARP-1 inhibitory activity; type: biochemical; settings: nicked DNA activated PARP-1, [32P]-NAD+, histones; read-out: In vitro filtration assay pIC50 (converted)
# Protocol: Compounds of the present invention were tested in an in vitro filtration assay assessing PARP-1 activity (triggered in the presence of nicked DNA) by means of its histone poly(ADP-ribosyl)ation activity using [^32P]-NAD as ADP-ribosyl donor. The radioactive ribosylated histones were precipitated by trichloroacetic acid (TCA) in 96-well filterplates and the incorporated [^32P] measured using a scintillation counter
# A mixture of histones (stock solution: 5 mg/ml in H2O), NAD^+ (stock solution: 100 mM in H2O), and [^32P]-NAD^+ in incubation buffer (50 mM Tris/HCl, pH 8; 0.2 mM DTT; 4 mM MgCl2) was made. A mixture of the PARP-1 enzyme (5-10 μg/ml) and nicked DNA was also made. The nicked DNA was prepared as described in the in vitro SPA for PARP-1 inhibitory activity. Seventy-five μl of the PARP-1 enzyme/DNA mixture together with 1 μl of compound in DMSO and 25 μl of histones-NAD^+/[^32P]-NAD^+ mixture was added per well of a 96-well filterplate (0.45 μm, supplier Millipore). The final concentrations in the incubation mixture were 2 μg/ml for the histones, 0.1 mM for the NAD^+, […] (0.5 μC) for the [^32P]-NAD^+ and 2 μg/ml for the nicked DNA. Plates were incubated for 15 min. at room temperature and the reaction was terminated by the addition of 10 μl ice cold 100% TCA followed by the addition of 10 μl ice-cold BSA solution (1% in H2O). The protein fraction was allowed to precipitate for 10 min. at 4° C. and plates were vacuum filtered. The plates were subsequently washed with, for each well, 1 ml of 10% ice cold TCA, 1 ml of 5% ice cold TCA and 1 ml of 5% TCA at room temperature. Finally 100 μl of scintillation solution (Microscint 40, Packard) was added to each well and the plates were transferred to a TopCountNXT™ (supplier: Packard) for scintillation counting and values were expressed as counts per minute (cpm). For each experiment, controls (containing PARP-1 enzyme and DMSO without compound), a blank incubation (containing DMSO but no PARP-1 enzyme or compound) and samples (containing PARP-1 enzyme and compound dissolved in DMSO) were run in parallel. All compounds tested were dissolved and eventually further diluted in DMSO. In first instance, compounds were tested at a concentration of 10^−5M. […] In each test, the blank value was subtracted from both the control and the sample values. The control sample represented maximal PARP-1 enzyme activity. For each sample, the amount of cpm was expressed as a percentage of the mean cpm value of the controls. When appropriate, IC50-values (concentration of the drug, needed to reduce the PARP-1 enzyme activity to 50% of the control) were computed using linear interpolation between the experimental points just above and below the 50% level. Herein the effects of test compounds are expressed as pIC50 (the negative log value of the IC50−-value). As a reference compound, 4-amino-1,8-naphthalimide was included to validate the filtration assay.
SMILES,IC50 (PARP-1 enzyme [2]) [nM],IC50 (PARP-1 enzyme [3]) [nM],also measured
CCc1nc2ccc(C(c3ccccc3)N3CCC(NCCOC)CC3)cc2[nH]c1=O (stereo not shown) (as salt: salt) [Compound 2],–,–,melting point: 98 °C
"Oc1cccc2c(O)nccc12 [1,5-dihydroxyisoquinoline]",–,–,reduction in infarct size ([1]; single injection 1 mg/kg): 38-48%
NC(=O)c1cccc(N)c1 [3-amino-benzamide],–,–,"reduction in infarct size in the heart ([1]; single injection 10 mg/kg, one minute before occlusion or one minute before reperfusion): 32-42%; effect on inflammatory response, distal colon (colitis): reduced the inflammatory response"
CCc1nc2ccc(CC(c3ccccc3)n3ccnc3)cc2[nH]c1=O (stereo not shown) [Compound 1],206,–,melting point: 166 °C
CCc1nc2ccc(C(c3ccccc3)N3CCC(NCCOC)CC3)cc2[nH]c1=O (stereo not shown) [Compound 2],7.5,–,–
Cc1cc2ccc(C(CCN(C)C)c3ccccc3)cc2[nH]c1=O (stereo not shown) [Compound 3],899,9890,–
CCc1nc2ccc(C(O)c3ccccc3)cc2[nH]c1=O (stereo not shown) [Compound 4],409,–,melting point: 202 °C
CCc1nc2ccc(C(c3ccc(Cl)cc3)N3CCCCC3)cc2[nH]c1=O (stereo not shown) [Compound 5],236,693,–
CCOC(=O)C1CCN(C(c2ccc(Cl)cc2)c2ccc3nc(CC)c(=O)[nH]c3c2)CC1 (stereo not shown) [Compound 6],818,–,–
CCc1nc2ccc(CC(c3ccc(Cl)cc3)N3CCCC3)cc2[nH]c1=O (stereo not shown) [Compound 7],586,–,–
Cc1nc2ccc(C(c3ccc(C(C)C)cc3)n3ccnc3)cc2[nH]c1=O (stereo not shown) [Compound 8],411,1410,–
CCc1nc2ccc(C(NCCCN(C)Cc3ccccc3)c3ccccc3)cc2[nH]c1=O (stereo not shown) [Compound 9],312,–,–
CCc1nc2ccc(CC(O)c3ccc(Cl)cc3)cc2[nH]c1=O (stereo not shown) [Compound 10],552,–,–
CCc1nc2ccc(CC(O)c3ccccc3)cc2[nH]c1=O (stereo not shown) [Compound 11],914,–,–
CCc1nc2ccc(C(c3cccc(F)c3)n3ccnc3)cc2[nH]c1=O (stereo not shown) [Compound 12],728,3600,–
CCc1nc2ccc(C(c3ccccc3F)n3ccnc3)cc2[nH]c1=O (stereo not shown) [Compound 13],718,4940,–
CCc1nc2ccc(C(c3ccccc3)n3cccn3)cc2[nH]c1=O (stereo not shown) [Compound 14],1600,2670,–
CCc1nc2ccc(CC(c3ccc(Cl)cc3)n3ccnc3)cc2[nH]c1=O (stereo not shown) [Compound 15],329,6380,–
CCc1nc2ccc(C(c3ccccc3)c3cccnc3)cc2[nH]c1=O (stereo not shown) [Compound 16],577,4530,–
CCc1nc2ccc(C(c3ccccc3)n3cncn3)cc2[nH]c1=O (stereo not shown) [Compound 17],334,–,–
CCc1nc2ccc(C(c3ccc(F)cc3)n3ccnc3)cc2[nH]c1=O (stereo not shown) [Compound 18],1000,4130,–
CCc1nc2ccc(C(c3ccccc3)n3ccnc3)cc2[nH]c1=O (stereo not shown) [Compound 19],231,615,–
"Cc1nc2ccc(C(c3ccc(Cl)cc3)n3ccnc3)cc2[nH]c1=O (stereo not shown) [Compound 20, 7-[(4-chlorophenyl)-1H-imidazol-1-ylmethyl]-3-methyl-2(1H)-quinoxalinone]",4110,> 10000,–
